Paper PMC4915350 (Journal of Medicinal Chemistry, 2016)

Key:
hD2R = hD2R (Homo sapiens, UniProt P14416); assay: biochemical; format: binding
D3R [1] = conditions: read-out: Ki at D3R, previously reported; using [3H]spiperone; cited from earlier work
D3R [2] = conditions: concentrations up to 1 μM, data not shown; ref 22 (McCall et al. 2005); cited from earlier work
hD3R = hD3R (Homo sapiens, UniProt P35462); assay: biochemical; format: binding
Chain of hD3R (P35462 whole entry): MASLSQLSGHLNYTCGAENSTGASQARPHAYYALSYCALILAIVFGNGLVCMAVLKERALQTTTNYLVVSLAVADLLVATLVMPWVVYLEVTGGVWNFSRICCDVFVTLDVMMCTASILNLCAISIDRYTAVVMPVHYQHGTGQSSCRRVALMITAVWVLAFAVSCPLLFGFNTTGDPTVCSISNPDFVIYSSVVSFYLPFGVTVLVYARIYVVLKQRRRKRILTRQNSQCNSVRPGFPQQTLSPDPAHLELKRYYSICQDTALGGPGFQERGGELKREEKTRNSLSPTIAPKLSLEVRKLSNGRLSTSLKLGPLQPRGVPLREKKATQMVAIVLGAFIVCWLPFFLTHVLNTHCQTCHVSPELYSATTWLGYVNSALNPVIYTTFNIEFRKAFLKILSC

Chain of hD2R (P14416 whole entry): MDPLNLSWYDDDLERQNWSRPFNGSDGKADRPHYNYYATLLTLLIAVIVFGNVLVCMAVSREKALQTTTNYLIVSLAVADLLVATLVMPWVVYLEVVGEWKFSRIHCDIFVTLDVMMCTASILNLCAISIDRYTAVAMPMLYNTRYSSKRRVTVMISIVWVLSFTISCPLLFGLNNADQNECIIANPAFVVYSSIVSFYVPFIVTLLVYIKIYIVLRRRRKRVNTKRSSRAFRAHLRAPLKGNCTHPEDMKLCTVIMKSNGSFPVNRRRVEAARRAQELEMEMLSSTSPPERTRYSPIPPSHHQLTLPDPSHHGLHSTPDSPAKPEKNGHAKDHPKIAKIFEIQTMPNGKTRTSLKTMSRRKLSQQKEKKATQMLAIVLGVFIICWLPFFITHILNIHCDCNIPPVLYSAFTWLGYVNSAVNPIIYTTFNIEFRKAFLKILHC

With `CCCN(C)[C@@H]1Cc2cccc3[nH]c(=O)n(c23)C1` [Compound 14c, (R)-5-[Methyl(propyl)amino]-5,6-dihydro-4H-imidazo[4,5,1-ij]quinolin-2(1H)-one] the “D2R selectivity over D3R (D3R/D2R)” value (hD2R) was ~8 fold.

In the case of `CN[C@@H]1Cc2cccc3[nH]c(=O)n(c23)C1` [Compound 1, (R)-5,6-dihydro-5-(methylamino)-4H-imidazo[4,5,1-ij]quinolin-2(1H)-one (Z)-2-butenedioate], the Ki (D3R [1]) is given as 1940 nM and the “activity in D3R-mediated mitogenesis assay, previously reported” value (D3R [2]) is given as “no activity was observed”.

For `CCCN(CCC)[C@@H]1Cc2cccc3nc(O)n(c23)C1` [Compound 14a, (R)-5-(Dipropylamino)-5,6-dihydro-4H-imidazo[4,5,1-ij]quinolin-2(1H)-one], the “fold decrease of D2R affinity relative to 13” value (hD2R) was ~4 fold.

Compound `CCCN(CCC)[C@@H]1Cc2cccc3c2n(c(=O)n3CCC)C1` [Compound 15, (R)-5-(Dipropylamino)-1-propyl-5,6-dihydro-4H-imidazo[4,5,1-ij]quinolin-2(1H)-one] has a Ki (hD3R) of ~3 nM and a Ki (hD2R) of ~3 nM.

For `N[C@@H]1Cc2cccc3[nH]c(=O)n(c23)C1` [Compound 12a, (R)-5-Amino-5,6-dihydro-4H-imidazo[4,5,1-ij]quinolin-2(1H)-one], the “fold reduction of D3R affinity relative to 1” value (hD3R; [3H]7-OH-DPAT as tracer) was ~6 fold and the “fold reduction of D2R affinity relative to 1” value (hD2R) was ~6 fold.
